In patent US8822449B2, “Substituted aminoindanes and analogs thereof, and the pharmaceutical use thereof” (Sanofi, priority 2008, dated 2014):

Each compound was assayed against T1, sodium-proton exchanger of subtype 3 (NHE3) (Homo sapiens, UniProt P48764) (assay: Recovery of intracellular pH (pHi) after acidification in LAP1 cells stably expressing NHE3 (BCECF fluorescence, FLIPR)). Details: LAP1, read-out: Activity range (inhibitory effect on NHE3).
T1 construct: expressed in transfected cells
T1 sequence (P48764 26-834): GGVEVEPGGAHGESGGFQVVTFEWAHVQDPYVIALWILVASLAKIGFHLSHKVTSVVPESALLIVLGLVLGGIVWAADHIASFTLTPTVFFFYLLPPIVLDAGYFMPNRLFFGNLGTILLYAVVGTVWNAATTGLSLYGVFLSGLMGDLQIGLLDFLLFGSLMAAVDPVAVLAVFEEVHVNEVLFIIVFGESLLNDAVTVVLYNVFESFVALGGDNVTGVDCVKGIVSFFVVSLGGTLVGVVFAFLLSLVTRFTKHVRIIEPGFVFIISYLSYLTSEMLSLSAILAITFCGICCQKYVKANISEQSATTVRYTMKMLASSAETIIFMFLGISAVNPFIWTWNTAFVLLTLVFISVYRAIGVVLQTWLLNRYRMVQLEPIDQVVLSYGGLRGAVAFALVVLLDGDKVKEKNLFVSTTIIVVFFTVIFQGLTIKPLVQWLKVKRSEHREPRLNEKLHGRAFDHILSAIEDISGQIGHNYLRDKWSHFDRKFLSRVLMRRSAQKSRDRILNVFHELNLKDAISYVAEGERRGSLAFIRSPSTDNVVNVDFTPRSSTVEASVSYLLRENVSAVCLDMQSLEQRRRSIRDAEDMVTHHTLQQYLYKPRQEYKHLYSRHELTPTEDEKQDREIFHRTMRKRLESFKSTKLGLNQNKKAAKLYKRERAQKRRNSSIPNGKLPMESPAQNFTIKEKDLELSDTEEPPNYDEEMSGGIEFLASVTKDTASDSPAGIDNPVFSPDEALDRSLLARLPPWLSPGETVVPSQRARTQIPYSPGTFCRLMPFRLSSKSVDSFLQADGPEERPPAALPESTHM
Type: cell-based

Structure (SMILES) | inhibition at 10 µM [%]
CS(=O)(=O)c1ccc(O[C@H]2c3c(Cl)sc(Cl)c3CC[C@@H]2N2CCCC2)cc1 (racemic) [Example 253, 1-[1,3-dichloro-4-(4-methanesulfonylphenoxy)-4,5,6,7-tetrahydrobenzo[c]thiophen-5-yl]pyrrolidine] | 20 to 50

Same assay, conditions: LAP1 cells stably expressing NHE3; pH recovery after acidification; range 1 is % inhibition at 10 μM; read-out: Activity range (inhibitory effect on NHE3)

inhibition at 10 µM [%] | IC50 [nM] | Structure (SMILES)
– | < 1000 | Cc1noc(C)c1-c1ccc(O[C@H]2c3ccccc3C[C@@H]2N2CCCC2)cc1 [Example 407, 3,5-dimethyl-4-[4-(trans-(1S,2S)-2-pyrrolidin-1-ylindan-1-yloxy)phenyl]-isoxazole]
– | < 1000 | CS(=O)(=O)c1ccc(O[C@H]2c3cc(F)cc(Cl)c3C[C@@H]2N2CCNCC2)cc1 (racemic) [Example 283, 1-[rac-trans-(1,2)-4-chloro-6-fluoro-1-(4-methanesulfonylphenoxy)indan-2-yl]piperazine]
– | 1000 to 10000 | CC(=O)Nc1cccc(O[C@@H]2c3ccccc3C[C@H]2N2CCC(N)C2)c1 (mixture of isomers) [Example 687, N-{3-[rac-trans-(1,2)-2-(3-aminopyrrolidin-1-yl)indan-1-yloxy]phenyl}acetamide]
– | 1000 to 10000 | CS(=O)(=O)c1ccc(O[C@H]2c3cc(Cl)ccc3C[C@@H]2N2CC[C@@H](O)C2)c(Cl)c1 [Example 107, (R)-1-[trans-(1S,2S)-6-chloro-1-(2-chloro-4-methanesulfonylphenoxy)indan-2-yl]pyrrolidin-3-ol]
20 to 50 | – | Cc1ccc(O[C@H]2c3ccccc3C[C@@H]2N2CCCC2)c(-c2c(C)noc2C)c1 [Example 408, 3,5-dimethyl-4-[5-methyl-2-(trans-(1S,2S)-2-pyrrolidin-1-ylindan-1-yloxy)phenyl]isoxazole]
20 to 50 | – | O[C@@H]1CCN([C@H]2Cc3c(Cl)cc(Cl)cc3[C@@H]2Oc2ccc(F)cc2-c2ccn[nH]2)C1 [Example 137, (R)-1-{trans-(1S,2S)-4,6-dichloro-1-[4-fluoro-2-(2H-pyrazol-3-yl)phenoxy]indan-2-yl}pyrrolidin-3-ol]
– | < 1000 | CC(=O)Nc1cccc(O[C@H]2c3ccccc3C[C@@H]2N2CCC[C@@H](N(C)C)C2)c1 [Example 692, N-{3-[trans-(1S,2S)-2-((R)-3-dimethylaminopiperidin-1-yl)indan-1-yloxy]phenyl}acetamide]
– | 1000 to 10000 | CC(=O)Nc1cccc(O[C@H]2c3cc(Cl)cc(Cl)c3C[C@@H]2N(C)C)c1 (racemic) [Example 645, N-[3-(rac-trans-(1,2)-4,6-dichloro-2-dimethylaminoindan-1-yloxy)phenyl]acetamide]
– | 1000 to 10000 | COc1cccc(F)c1O[C@@H]1c2ccccc2C[C@H]1N1CCC(CN)C1 (mixture of isomers) [Example 605, C-{1-[rac-trans-(1,2)-1-(2-fluoro-6-methoxyphenoxy)indan-2-yl]pyrrolidin-3-yl}methylamine]
– | < 1000 | Cc1nnc(C)n1-c1ccc(O[C@H]2c3cc(Cl)ccc3C[C@@H]2N2CCOCC2)c(Cl)c1 [Example 566, 4-{trans-(1S,2S)-6-chloro-1-[2-chloro-4-(3,5-dimethyl-[1,2,4]triazol-4-yl)phenoxy]indan-2-yl}morpholine]
– | 1000 to 10000 | COc1cc(Cl)cc(O[C@@H]2c3ccccc3C[C@H]2N2CCC(CN)CC2)c1 (racemic) [Example 612, C-{1-[rac-trans-(1,2)-1-(3-chloro-5-methoxyphenoxy)indan-2-yl]piperidin-4-yl}methylamine]
– | 1000 to 10000 | N[C@@H]1CCCN([C@H]2CCc3ccccc3[C@@H]2Oc2cccc3ccc(Cl)nc23)C1 (racemic) [Example 41, (R)-1-[rac-trans-(1,2)-1-(2-chloroquinolin-8-yloxy)-1,2,3,4-tetrahydronaphthalen-2-yl]piperidin-3-ylamine]
– | 1000 to 10000 | NCC1CCN([C@@H]2Cc3ccccc3[C@H]2Oc2cccc3[nH]ccc23)C1 (mixture of isomers) [Example 601, C-{1-[rac-trans-(1,2)-1-(1H-indol-4-yloxy)indan-2-yl]pyrrolidin-3-yl}methylamine]
– | 1000 to 10000 | CC(=O)Nc1cccc(O[C@@H]2c3ccccc3C[C@H]2N2C[C@H]3CNC[C@H]3C2)c1 (racemic) [Example 674, N-{3-[rac-trans-(1,2)-2-(hexahydropyrrolo[3,4-c]pyrrol-2-yl)indan-1-yloxy]phenyl}acetamide]
– | < 1000 | CC(=O)Nc1cccc(O[C@H]2c3ccccc3C[C@@H]2N2CCC[C@@H](N)C2)c1 [Example 691, N-{3-[trans-(1S,2S)-2-((R)-3-aminopiperidin-1-yl)indan-1-yloxy]phenyl}acetamide]
20 to 50 | – | Cc1cccc(Cl)c1O[C@H]1c2ccccc2CC[C@@H]1N1CCC[C@@H](N)C1 (racemic) [Example 39, (R)-1-[rac-trans-(1,2)-1-(2-chloro-6-methylphenoxy)-1,2,3,4-tetrahydronaphthalen-2-yl]piperidin-3-ylamine]
– | 1000 to 10000 | N[C@@H]1CCCN([C@@H]2Cc3c(Cl)cc(Cl)cc3[C@H]2Oc2ccccc2)C1 [Example 23, (R)-1-(trans-(1R,2R)-4,6-dichloro-1-phenoxyindan-2-yl)piperidin-3-ylamine]

Continued, compound first:

Structure (SMILES) | inhibition at 10 µM [%] | IC50 [nM]
N[C@@H]1CCCN([C@H]2CCc3ccccc3[C@@H]2Oc2ccc(F)cc2)C1 (racemic) [Example 70, (R)-1-[rac-trans-(1,2)-1-(4-fluorophenoxy)-1,2,3,4-tetrahydronaphthalen-2-yl]piperidin-3-ylamine] | 20 to 50 | –
COCCN(C)[C@H]1Cc2c(Cl)cc(Cl)cc2[C@@H]1Oc1ccc(S(C)(=O)=O)cc1 [Example 218, [trans-(1S,2S)-4,6-dichloro-1-(4-methanesulfonylphenoxy)indan-2-yl]-(2-methoxyethyl)-methylamine] | 20 to 50 | –
CC(=O)Nc1cccc(O[C@H]2c3cc(Cl)cc(Cl)c3C[C@@H]2N2CCOCC2)c1 (racemic) [Example 646, N-[3-(rac-trans-(1,2)-4,6-dichloro-2-morpholin-4-ylindan-1-yloxy)phenyl]acetamide] | 20 to 50 | –
N[C@H]1CCCN([C@H]2CCc3ccccc3[C@@H]2Oc2cc(F)cc(Cl)c2)C1 (racemic) [Example 162, (S)-1-[rac-trans-(1,2)-1-(3-chloro-5-fluorophenoxy)-1,2,3,4-tetrahydronaphthalen-2-yl]piperidin-3-ylamine] | 20 to 50 | –
CC(=O)Nc1cccc(O[C@H]2c3ccccc3C[C@@H]2N2CCCC2)n1 (racemic) [Example 668, N-[6-(rac-trans-(1,2)-2-pyrrolidin-1-ylindan-1-yloxy)-pyridin-2-yl]acetamide] | – | < 1000
CS(=O)(=O)c1ccc(O[C@H]2c3cc(Cl)cc(Cl)c3C[C@@H]2N2CCC[C@H]2CN2CCCC2)cc1 [Example 195, (S)-1-[trans-(1S,2S)-4,6-dichloro-1-(4-methanesulfonylphenoxy)indan-2-yl]-2-pyrrolidin-1-ylmethylpyrrolidine] | – | < 1000
N#Cc1c(F)cccc1O[C@H]1c2ccccc2CC[C@@H]1N1CCC[C@H](N)C1 (racemic) [Example 372, 2-[rac-trans-(1,2)-2-((S)-3-aminopiperidin-1-yl)-1,2,3,4-tetrahydronaphthalen-1-yloxy]-6-fluorobenzonitrile] | 20 to 50 | –
N[C@H]1CCCN([C@@H]2Cc3ccccc3[C@H]2Oc2cccc(CN3CCCCC3)c2)C1 (racemic) [Example 170, (S)-1-[rac-trans-(1,2)-1-(3-piperidin-1-ylmethylphenoxy)indan-2-yl]piperidin-3-ylamine] | – | 1000 to 10000
Cn1ccn(-c2cccc(O[C@H]3c4ccccc4C[C@@H]3N3CCCC3)c2)c1=O (racemic) [Example 352, 1-methyl-3-[3-(rac-trans-(1,2)-2-pyrrolidin-1-ylindan-1-yloxy)phenyl]-1,3-dihydroimidazol-2-one] | – | < 1000
CS(=O)(=O)c1ccc(O[C@H]2c3cc(Cl)cc(Cl)c3C[C@@H]2NC2CCCC2)cc1 [Example 747, Cyclopentyl-[trans-(1S,2S)-4,6-dichloro-1-(4-methanesulfonyl-phenoxy)-indan-2-yl]-amine] | – | 1000 to 10000
NCC1CCN([C@@H]2Cc3ccccc3[C@H]2Oc2ccc(C(N)=O)cc2)CC1 (racemic) [Example 548, 4-[rac-trans-(1,2)-2-(4-aminomethylpiperidin-1-yl)indan-1-yloxy]benzamide] | – | 1000 to 10000
Clc1cc(Cl)c2c(c1)[C@H](Oc1cccc(-n3cnnn3)c1)[C@@H](N1CCNCC1)C2 [Example 248, 1-[(1S,2S)-4,6-dichloro-1-(3-tetrazol-1-ylphenoxy)indan-2-yl]piperazine] | – | < 1000
N[C@H]1CCCN([C@@H]2Cc3ccccc3[C@H]2Oc2ccc(N3CCNCC3)cc2)C1 (racemic) [Example 185, (S)-1-[rac-trans-(1,2)-1-(4-piperazin-1-ylphenoxy)indan-2-yl]piperidin-3-ylamine] | – | 1000 to 10000
